According to patent US20040048866A1 (priority 2002, published 2004):

Legend:
[1] = target: T1, α1 and β1 subunits of guanylate cyclase (sGC), expressed in Sf9 cells (Homo sapiens, UniProt Q02108+Q02153); experiment: Guanylate Cyclase Assay (formation of cyclic GMP from GTP); format: biochemical; conditions: for Mean activation at 100 μM: (activity at 100 μM with 1 μM SNP − activity at 100 μM)/(activity of SNP at 1 μM − basal activity of sGC); for Mean efficacy at 100 μM with 1 μM of SNP, [% of YC-1]: compound at 100 μM with 1 μM sodium nitroprusside (SNP), normalized to 100 μM YC-1 (without SNP) as 100%; for Emax at 100 µM: compound at 100 μM without SNP, normalized to activity of 100 μM YC-1 (without SNP) as 100%, read-out: Mean basal efficacy at 100 μM, [% of YC-1]
T1 construct: made in house; host or cells: Sf9 insect cells (baculovirus co-infection); high-speed supernatant used unpurified
T1 sequence (Q02108 1-690): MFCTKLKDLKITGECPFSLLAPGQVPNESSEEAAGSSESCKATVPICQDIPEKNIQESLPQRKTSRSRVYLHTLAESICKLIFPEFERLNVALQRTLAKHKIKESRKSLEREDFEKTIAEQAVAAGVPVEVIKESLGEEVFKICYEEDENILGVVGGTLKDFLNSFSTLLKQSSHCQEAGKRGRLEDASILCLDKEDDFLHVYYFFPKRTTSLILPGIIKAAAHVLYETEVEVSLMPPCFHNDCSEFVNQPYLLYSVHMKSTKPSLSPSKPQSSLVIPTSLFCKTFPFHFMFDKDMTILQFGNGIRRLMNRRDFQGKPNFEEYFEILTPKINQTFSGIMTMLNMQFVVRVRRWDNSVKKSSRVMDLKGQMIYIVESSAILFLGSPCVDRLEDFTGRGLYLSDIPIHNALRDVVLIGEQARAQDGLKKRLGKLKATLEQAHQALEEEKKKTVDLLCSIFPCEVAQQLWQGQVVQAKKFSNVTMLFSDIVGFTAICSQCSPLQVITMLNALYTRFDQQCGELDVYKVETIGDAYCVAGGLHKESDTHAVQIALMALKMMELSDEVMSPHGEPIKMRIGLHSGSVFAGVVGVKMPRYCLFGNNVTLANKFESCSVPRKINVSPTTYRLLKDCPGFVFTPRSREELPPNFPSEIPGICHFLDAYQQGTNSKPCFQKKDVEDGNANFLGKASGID
T1 sequence (Q02153 1-619): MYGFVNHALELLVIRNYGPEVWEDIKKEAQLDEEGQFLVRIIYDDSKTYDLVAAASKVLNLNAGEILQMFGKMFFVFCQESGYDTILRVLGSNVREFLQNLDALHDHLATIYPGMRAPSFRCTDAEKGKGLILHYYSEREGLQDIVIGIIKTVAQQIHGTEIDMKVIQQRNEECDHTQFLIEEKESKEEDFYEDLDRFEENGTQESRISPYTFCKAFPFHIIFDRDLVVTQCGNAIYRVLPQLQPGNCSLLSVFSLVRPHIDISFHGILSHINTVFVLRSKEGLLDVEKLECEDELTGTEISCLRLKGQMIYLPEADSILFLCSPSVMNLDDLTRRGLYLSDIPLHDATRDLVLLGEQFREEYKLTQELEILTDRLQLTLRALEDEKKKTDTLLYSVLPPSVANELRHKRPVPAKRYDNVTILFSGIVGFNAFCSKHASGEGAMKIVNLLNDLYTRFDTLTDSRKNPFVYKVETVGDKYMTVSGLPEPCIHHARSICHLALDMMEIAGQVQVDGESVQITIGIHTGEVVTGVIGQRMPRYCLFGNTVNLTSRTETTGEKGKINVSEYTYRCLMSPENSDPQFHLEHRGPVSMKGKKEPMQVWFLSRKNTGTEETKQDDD
Procedure: Sf9 cells were cultured in Sf-90011 medium supplemented with 10% (v/v) fetal calf serum at 28° C. to give a count of 6×10^5 cells/ml. The cells were then infected with a mixture of the virus stocks for the α1 and β1 subunits of guanylate cyclase at a multiplicity of infection of 0.1 pfu/cell. The cells were harvested 72 hours after infection and were pelleted by centrifugation. The resulting cell pellets were homogenized with Polytron homogenizer in 3 volumes of 20 mM Tris-HCl (pH 7.6) containing 1 mM EDTA, 5 mM dithiothreitol, 90 mM NaCl, 10% glycerol, and protease inhibitors mix (Roche Molecular Biochemicals). The homogenate was centrifuged at 50,000×g for 60 minutes and the supernatant was aliquotted and stored at −80° C.
Compounds of the present invention were dissolved in DMSO to make 100 mM and saved as stocks at −20° C. When compounds were tested, 10-fold concentrated solutions with 10% DMSO were prepared. 10 μl of 10-fold concentrated compound solutions were added to the reaction mixture total of 100 μl.
Guanylate cyclase activity was measured by the formation of cyclic GMP from GTP in a total volume of 100 μl. Guanylate cyclase-expressed Sf9 cell high-speed supernatant (Sf9 high-speed sup) was used as an enzyme source for the assay. The reaction mixture containing 0.1 μl enzyme of Sf9 high-speed sup, compound solution, 50 mM Tris-HCl (pH 7.6), 4 mM MgCl2, 0.5 mM IBMX, 15 mM creatine phosphate, 20 μg creatine phosphokinase, 0.1% BSA and 1 mM GTP were incubated at 37° C. for 15 minutes. After the reaction, 0.9 ml of 50 mM sodium acetate buffer (pH 5.8) was added followed by boiling for 3 minutes to stop the reaction. The solution was centrifuged at 3000 rpm for 15 minutes at room temperature and cyclic GMP in 20 μl of the resulting supernatant was measured according to the protocol of Amersham cyclic GMP enzymeimmunoassay system (Amersham, RPN 226).
Compounds of the present invention were tested at 100 μM with and without 1 μM of sodium nitroprusside (SNP). YC-1 was included as a standard for each assay. The data was normalized with the activity of 100 μM YC-1 (without SNP) as 100%. Mean basal efficacy, in Table 1, was expressed as a percentage of 100 μM YC-1 (without SNP).
The mean activation, in Table 1, was calculated based on the formula: (activity of compound of the present invention at 100 μM with 1 μM SNP)−(activity of compound of on at 100 μM)/(activity of SNP at 1 μM)−(basal activity of sGC).

## O=[N+]([O-])c1ccc(Oc2nn(Cc3ccccc3F)c3ncccc23)nc1 [Example 34, 1-(2-fluorobenzyl)-3-[(5-nitro-2-pyridinyl)oxy]-1H-pyrazolo[3,4-b]pyridine]
[1]
  Mean activation at 100 μM: 1.0
  Mean efficacy at 100 μM with 1 μM of SNP, [% of YC-1]: 7 % of YC-1
  Emax at 100 µM: 4%
other
  melting point: 111 to 113 °C

## OCc1cccc(Oc2nn(Cc3ccccc3)c3ccccc23)n1 [Example 2, {6-[(1-benzyl-1H-indazol-3-yl)oxy]-2-pyridinyl}methanol]
[1]
  Mean activation at 100 μM: 1.8
  Mean efficacy at 100 μM with 1 μM of SNP, [% of YC-1]: 20 % of YC-1
  Emax at 100 µM: 0%
other
  melting point: 156 to 158 °C

## O=[N+]([O-])c1cccnc1Oc1nn(Cc2ccccc2F)c2ncccc12 [Example 35, 1-(2-fluorobenzyl)-3-[(3-nitro-2-pyridinyl)oxy]-1H-pyrazolo[3,4-b]pyridine]
[1]
  Mean activation at 100 μM: 1.9
  Mean efficacy at 100 μM with 1 μM of SNP, [% of YC-1]: 28.1 % of YC-1
  Emax at 100 µM: 7.1%
other
  melting point: 115 to 117 °C

## Clc1ccc(NN=Cc2ccc(Oc3nn(Cc4ccccc4)c4ccccc34)o2)nn1 [Example 3, 5-[(1-benzyl-1H-indazol-3-yl)oxy]-2-furaldehyde (6-chloro-3-pyridazinyl)hydrazone]
[1]
  Mean activation at 100 μM: 1.7
  Mean efficacy at 100 μM with 1 μM of SNP, [% of YC-1]: 17 % of YC-1
  Emax at 100 µM: 0%
other
  melting point: 200 to 202 °C

## O=C(O)c1ccc(Oc2nn(Cc3ccccc3)c3ccccc23)o1 [Example 4, 5-[(1-benzyl-1H-indazol-3-yl)oxy]-2-furoic acid]
[1]
  Mean activation at 100 μM: 1.5
  Mean efficacy at 100 μM with 1 μM of SNP, [% of YC-1]: 26 % of YC-1
  Emax at 100 µM: 0%
other
  melting point: 162 to 165 °C

## OCc1ccc(Cn2nc(OCc3ccccc3)c3ccccc32)o1 [Example 29, (5-{[3-(benzyloxy)-1H-indazol-1-yl]methyl}-2-furyl)methanol]
[1]
  Mean activation at 100 μM: 1.4
  Mean efficacy at 100 μM with 1 μM of SNP, [% of YC-1]: 11 % of YC-1
  Emax at 100 µM: 1%
other
  melting point: 80 to 82 °C

## CC(CCCC(C)(C)O)NC(=O)c1ccc(Oc2nn(Cc3ccccc3)c3ccccc23)o1 (stereo not drawn) [Example 8, 5-[(1-benzyl-1H-indazol-3-yl)oxy]-N-(5-hydroxy-1,5-dimethylhexyl)-2-furamide]
[1]
  Mean activation at 100 μM: 1.5
  Mean efficacy at 100 μM with 1 μM of SNP, [% of YC-1]: 9 % of YC-1
  Emax at 100 µM: 0%

## CN(C)CCCNC(=O)c1ccccc1Oc1nn(Cc2ccccc2)c2ccccc12 [Example 18, 2-[(1-benzyl-1H-indazol-3-yl)oxy]-N-[3-(dimethylamino)propyl]benzamide]
[1]
  Mean activation at 100 μM: 1.5
  Mean efficacy at 100 μM with 1 μM of SNP, [% of YC-1]: 10 % of YC-1
  Emax at 100 µM: 5%

## CN(C)CCNC(=O)c1ccccc1Oc1nn(Cc2ccccc2)c2ccccc12 [Example 16, 2-[(1-benzyl-1H-indazol-3-yl)oxy]-N-[2-(dimethylamino)ethyl]benzamide]
[1]
  Mean activation at 100 μM: 1.9
  Mean efficacy at 100 μM with 1 μM of SNP, [% of YC-1]: 15 % of YC-1
  Emax at 100 µM: 6%

## O=C(NCCN1CCOCC1)c1ccc(Oc2nn(Cc3ccccc3)c3ccccc23)o1 [Example 10, 5-[(1-benzyl-1H-indazol-3-yl)oxy]-N-[2-(4-morpholinyl)ethyl]-2-furamide]
[1]
  Mean activation at 100 μM: 2.0
  Mean efficacy at 100 μM with 1 μM of SNP, [% of YC-1]: 11 % of YC-1
  Emax at 100 µM: 1%

## O=C(NC1CCC(O)CC1)c1ccccc1Oc1nn(Cc2ccccc2)c2ccccc12 (stereo not drawn) [Example 19, 2-[(1-benzyl-1H-indazol-3-yl)oxy]-N-(4-hydroxycyclohexyl)benzamide]
[1]
  Mean activation at 100 μM: 1.9
  Mean efficacy at 100 μM with 1 μM of SNP, [% of YC-1]: 12 % of YC-1
  Emax at 100 µM: 3%
